Several values for one entry are separate records, joined by “and”; a condition that tells them apart may be missing. Identical values can stand only once. Like-named read-outs stand apart in the source and are kept apart here.
Experiments:
[1] = test system: P. falciparum strain 3D7; test: Efficacy in the Pf/NSG mouse model; format: in vivo, Plasmodium falciparum; details: 3D7, humanized NSG mouse
[2] = test system: P. falciparum strain W2; test: Efficacy in the Pf/NSG mouse model; format: in vivo, Plasmodium falciparum; details: W2, humanized NSG mouse
[3] = test system: FLT3(ITD); test: KINOMEscan; format: binding, human; details: 10 μM
Experimental: The KINOMEscan was carried out by Ambit (San Diego, USA) according to a previously established protocol. The experiment was based on a competition binding assay that quantitatively measures the ability of a compound to compete with an immobilized, active-site directed ligand. The assay is performed by combining three components: DNA-tagged kinase; immobilized ligand; and a test compound. The ability of the test compound to compete with the immobilized ligand is measured via quantitative PCR of the DNA tag.
For most assays, kinase-tagged T7 phage strains were grown in parallel in 24-well blocks in an Escherichia coli host derived from the BL21 strain. E. coli were grown to log-phase and infected with T7 phage from a frozen stock and incubated with shaking at 32 °C until lysis (90–150 min). The lysates were centrifuged (6,000g) and filtered (0.2 μm) to remove cell debris. The remaining kinases were produced in HEK-293 cells (Sigma Aldrich, catalogue number: 85120602) and subsequently tagged with DNA for quantitative PCR detection. […] The liganded beads were blocked with excess biotin and washed with blocking buffer (SeaBlock (Pierce), 1% bovine serum albumin, 0.05% Tween 20 and 1 mM dithiothreitol) to remove unbound ligand and to reduce non-specific phage binding. […] The kinase concentration in the eluates was measured by quantitative PCR.

[4] = target: CYP2C19 (Homo sapiens, UniProt P33261); test: CYP inhibition, human liver microsomes; details: 10 µM
CYP2C19, sequence (P33261 whole entry): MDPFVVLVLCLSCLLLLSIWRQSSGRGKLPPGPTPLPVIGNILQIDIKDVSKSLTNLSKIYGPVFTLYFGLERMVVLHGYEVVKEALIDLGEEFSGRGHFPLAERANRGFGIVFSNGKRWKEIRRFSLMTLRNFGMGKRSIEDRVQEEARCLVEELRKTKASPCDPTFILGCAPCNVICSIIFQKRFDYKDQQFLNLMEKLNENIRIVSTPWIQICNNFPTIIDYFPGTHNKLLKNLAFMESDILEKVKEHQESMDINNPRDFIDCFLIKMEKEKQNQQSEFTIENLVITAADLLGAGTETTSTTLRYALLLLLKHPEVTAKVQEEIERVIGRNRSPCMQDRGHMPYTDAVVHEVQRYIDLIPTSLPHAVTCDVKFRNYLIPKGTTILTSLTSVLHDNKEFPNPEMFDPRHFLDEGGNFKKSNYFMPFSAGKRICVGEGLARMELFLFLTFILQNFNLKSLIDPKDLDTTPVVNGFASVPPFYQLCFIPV

[5] = test system: Dd2 trophozoites; test: In vitro speed of action, clearance of trophozoites (Vial protocol); format: cell-based, Plasmodium falciparum; details: 500 nM
[6] = Measured pK; format: physicochemical
Experimental: SC81458 and SC83288 were soluble in water (890 and 940 μg ml^−1, respectively) and organic solvents. […] The compounds were stable in different physiological solutions, including artificial gastric juice, simulated intestinal fluid, phosphate-buffered saline and human plasma, when incubated for 6 h at 37 °C.

[7] = PK study; format: in vivo; details: dog i.v. 1.7 mg kg^−1; for half-life: dog
Experimental: On the treatment day, all animals were weighed and the dosing volume was calculated for each individual animal according to its actual body weight. All animal were dosed once. Blood samples were taken at different time points and plasma was collected after centrifugation (10,000g, 10 min, 4 °C). Plasma samples were analysed by LC–MS/MS. […] All relevant observations were recorded. The PK studies in cynomolgus monkeys and beagle dogs were performed by the Laboratory of Pharmacology and Toxicology (LPT), Hamburg, and PK and toxicity studies in mice and rats were performed by the 4SC Discovery GmbH, Munich. PK parameters were obtained by a non-compartment analysis, using Kinetica 4.1 (Thermo Scientific).

[8] = Plasma protein binding, rapid equilibrium dialysis; format: in vitro ADME; details: 10 μM
Experimental: The study was carried out by Novamass Ltd (Oulu, Finland). The plasma protein binding of SC83288 was determined in human rat, mouse and cynomolgus plasma, using a method based on rapid equilibrium dialysis and LC/MS/MS analysis. Briefly, plasma from the different species was incubated with a final concentration of SC83288 of 10 μM for 4 h at 37 °C in a rapid equilibrium dialysis device. Proteins were then precipitated by acetonitrile addition containing a phenacetin internal standard. After centrifugation (10,000g) the supernatants were analysed by LC/MS/MS to obtain the protein unbound fraction of the analyte substance.

[9] = Allometric scaling, prediction of human PK
[10] = CYP2C19a, omeprazole to 5-OH-omeprazole
[11] = CYP2C19b, omeprazole to desmethylomeprazole

CCCCN1CCN(C(=N)c2cccc(NC(=O)Nc3ccc(S(=O)(=O)NCc4ccc(S(N)(=O)=O)cc4)cc3)c2)CC1 [SC81458, 4-(3-(3-((4-butylpiperazin-1-yl)(imino)methyl)phenyl)ureido)-N-(4-sulfamoylbenzyl) benzenesulfonamide]
In vivo logPRR [1]: 3.2 | In vivo logPRR [2]: 5.3 | Remaining enzyme activity [3]: 85% | Remaining enzyme activity [4, 10]: 87% | Remaining enzyme activity [4, 11]: 89%

COC(=O)N1CCN(C(=N)c2cccc(NC(=O)Nc3ccc(S(=O)(=O)NCc4ccc(S(N)(=O)=O)cc4)cc3)c2)CC1 [SC83288, methyl 4-(imino(3-(3-(4-(N-(4-sulfamoylbenzyl)sulfamoyl)phenyl)ureido)phenyl)methyl) piperazine-1-carboxylate]
exposure time to clear a 0.5% parasitemia [5]: ≤ 3 ± 1 h | pK [6]: 9.82 | half-life ([7]; beagle, plasma, iv, read-out: t1/2 effective): 35 min | half-life ([7]; beagle, plasma, iv, read-out: t1/2 initial): 12 min | half-life ([7]; beagle, plasma, iv, read-out: t1/2 terminal): 90 min | AUC(0-inf) ([7]; beagle, plasma, iv): 2260 ng·h/mL | C0 ([7]; beagle, plasma, iv): 5580 ng/mL | Cmax ([7]; beagle, plasma, iv): 4560 ng/mL | Tmax ([7]; beagle, plasma, iv): 5 min | clearance ([7]; beagle, plasma, iv): 14.7 mL/min/kg | MRT last ([7]; beagle, plasma, iv, read-out: MRT0-t): 50.4 min | VC [7]: 0.359 L/kg | Bound fraction ([8]; cynomolgus plasma): 82 ± 2.8% and 82% | Bound fraction ([8]; human plasma): 78 ± 1.3% and 78% | Bound fraction ([8]; mouse plasma): 89 ± 2.2% and 89% | Bound fraction ([8]; rat plasma): 80 ± 0.6% | Remaining enzyme activity [4, 10]: 104% | Remaining enzyme activity [4, 11]: 96% | predicted human plasma clearance ([9]; allometric scaling, rule of exponents): 14.7 L/h | total plasma clearance rate (higher estimate) ([9]; human): 15,180 ml h^−1 | total plasma concentration for […] the free MPC ([9]; human projection, assuming 78% plasma protein binding): 860 ng/mL
